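48-hour exposure; five concentrations; linearly interpolated endpoints. GI50 marks 50% less growth.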 Calls of active or inactive are those of the source. Cut-off read from the data, not from the text of the source: active = GI50 up to about 1.1 µM and inactive = higher.
Columns and labels:
Assay in all cases: NCI anticancer screen, dose series, 48 h
RPMI-8226 = tested on: RPMI-8226
MDA-N = tested on: MDA-N
K562 = tested on: K562
SK-OV-3 = tested on: SK-OV-3
U-251 = tested on: U-251
M14 = tested on: M14
SK-MEL-2 = tested on: SK-MEL-2
SK-MEL-28 = tested on: SK-MEL-28
A549 = tested on: A549
HCT-116 = tested on: HCT-116
MDA-MB-231 = tested on: MDA-MB-231
HCT-15 = tested on: HCT-15
IGROV-1 = tested on: IGROV-1
HCC 2998 = tested on: HCC 2998
A498 = tested on: A498
Malme-3M = tested on: Malme-3M
CCRF-CEM = tested on: CCRF-CEM
MOLT-4 = tested on: MOLT-4
NCI-H522 = tested on: NCI-H522
786-0 = tested on: 786-0

Compound | GI50 (RPMI-8226) | GI50 (MDA-N) | GI50 (K562) | GI50 (SK-OV-3) | GI50 (U-251) | GI50 (M14) | GI50 (SK-MEL-2) | GI50 (SK-MEL-28) | GI50 (A549) | GI50 (HCT-116) | GI50 (MDA-MB-231) | GI50 (HCT-15) [µM] | GI50 (IGROV-1) | GI50 (HCC 2998) | GI50 (A498) | GI50 (Malme-3M) | GI50 (CCRF-CEM) | GI50 (MOLT-4) | GI50 (NCI-H522) | GI50 (786-0)
O=C(Cc1ccc(Cl)cc1)Nc1ccc2oc(-c3ccccc3)nc2c1 | > 100 µM (inactive) | > 100 µM (inactive) | > 100 µM (inactive) | 77.8 µM (inactive) | 56.1 µM (inactive) | > 100 µM (inactive) | 89.1 µM (inactive) | > 100 µM (inactive) | > 100 µM (inactive) | > 100 µM (inactive) | > 100 µM (inactive) | > 100 | > 100 µM (inactive) | > 100 µM (inactive) | > 100 µM (inactive) | > 100 µM (inactive) | > 100 µM (inactive) | > 100 µM (inactive) | > 100 µM (inactive) | 57 µM (inactive)
Cn1c(=O)c2c(ncn2CCNC(CO)C(O)c2ccc([N+](=O)[O-])cc2)n(C)c1=O (stereo not given) | > 100 µM (inactive) | > 100 µM (inactive) | > 100 µM (inactive) | > 100 µM (inactive) | > 100 µM (inactive) | > 100 µM (inactive) | > 100 µM (inactive) | > 100 µM (inactive) | > 100 µM (inactive) | > 100 µM (inactive) | > 100 µM (inactive) | > 100 | > 10 µM (inactive) | > 10 µM (inactive) | > 100 µM (inactive) | > 100 µM (inactive) | > 100 µM (inactive) | > 100 µM (inactive) | > 100 µM (inactive) | > 100 µM (inactive)
NS(=O)(=O)c1ccc(NCc2cccc3c(=O)c4ccc(Cl)cc4oc23)cc1 | 24 µM (inactive) | 23.1 µM (inactive) | 12.5 µM (inactive) | > 71.8 µM (inactive) | 23.8 µM (inactive) | 27.8 µM (inactive) | 68.7 µM (inactive) | > 79.8 µM (inactive) | > 86.1 µM (inactive) | 6.17 µM (inactive) | 52 µM (inactive) | 11.5 | 20.2 µM (inactive) | > 82.4 µM (inactive) | > 75.3 µM (inactive) | 12.3 µM (inactive) | 4.75 µM (inactive) | 19.7 µM (inactive) | > 39.2 µM (inactive) | > 58.5 µM (inactive)
COC(=O)NC(=O)NC(Cc1ccccc1)NC(=O)OCc1ccccc1 (stereo not given) | > 100 µM (inactive) | > 100 µM (inactive) | > 100 µM (inactive) | 18 µM (inactive) | 44.1 µM (inactive) | > 100 µM (inactive) | 63.2 µM (inactive) | > 100 µM (inactive) | 97.7 µM (inactive) | 39.3 µM (inactive) | 18.5 µM (inactive) | > 100 | 70.8 µM (inactive) | > 100 µM (inactive) | 30.3 µM (inactive) | > 100 µM (inactive) | > 100 µM (inactive) | > 100 µM (inactive) | 28.3 µM (inactive) | 37.8 µM (inactive)
N=C(N)SC1c2ccccc2-c2cc([N+](=O)[O-])ccc21 (stereo not given) | 4.2 µM (inactive) | 3 µM (inactive) | 3.89 µM (inactive) | 4.44 µM (inactive) | 2.75 µM (inactive) | 5.15 µM (inactive) | 3.51 µM (inactive) | 2.41 µM (inactive) | 4.33 µM (inactive) | 4.76 µM (inactive) | 6.5 µM (inactive) | 4.48 | 5.62 µM (inactive) | 2.59 µM (inactive) | 3.62 µM (inactive) | 5.19 µM (inactive) | 3.3 µM (inactive) | 3.52 µM (inactive) | 2.51 µM (inactive) | 4.67 µM (inactive)
O=Cc1ccc2c(c1)CC1(C2)Cc2ccc(C=O)cc2C1 | 0.274 µM (active) | 2.45 µM (inactive) | 2.89 µM (inactive) | 55.2 µM (inactive) | 8.69 µM (inactive) | 6.14 µM (inactive) | 11.8 µM (inactive) | 23.7 µM (inactive) | 40.5 µM (inactive) | 7.52 µM (inactive) | 12.2 µM (inactive) | 7.03 | 21.5 µM (inactive) | 35.8 µM (inactive) | 28.1 µM (inactive) | 20 µM (inactive) | 1.68 µM (inactive) | 2.77 µM (inactive) | 22.6 µM (inactive) | 7.45 µM (inactive)
COC1=C(OC)C(=O)C(Cc2c(Cl)nc3sc(C)cn23)=C(C)C1=O | 11.2 µM (inactive) | 15.8 µM (inactive) | 11.9 µM (inactive) | 17.5 µM (inactive) | 17.9 µM (inactive) | 17.1 µM (inactive) | 22.3 µM (inactive) | 17.9 µM (inactive) | 17.2 µM (inactive) | 23 µM (inactive) | 12.2 µM (inactive) | 24.9 | 17.8 µM (inactive) | 17.2 µM (inactive) | 22.9 µM (inactive) | 12.2 µM (inactive) | 3.02 µM (inactive) | 1.29 µM (inactive) | 13.4 µM (inactive) | 19.9 µM (inactive)
COc1ccc2nc3cccc([N+](=O)[O-])c3c(NCCN(C)C)c2c1 | 0.0318 µM (active) | 0.124 µM (active) | 0.0292 µM (active) | 0.255 µM (active) | 0.149 µM (active) | 0.0927 µM (active) | 0.127 µM (active) | 0.161 µM (active) | 0.0515 µM (active) | 0.0251 µM (active) | 0.156 µM (active) | 0.0716 | 0.167 µM (active) | 0.0605 µM (active) | 0.17 µM (active) | 0.0877 µM (active) | 0.16 µM (active) | 0.103 µM (active) | 0.0209 µM (active) | 0.0902 µM (active)
CCCC(=O)[O-].[Na+] [SODIUM BUTYRATE] | 243 µM (inactive) | 3580 µM (inactive) | 1000 µM (inactive) | 3030 µM (inactive) | 4790 µM (inactive) | 5460 µM (inactive) | 4720 µM (inactive) | 4170 µM (inactive) | 7830 µM (inactive) | 1390 µM (inactive) | 5710 µM (inactive) | 10600 | 4450 µM (inactive) | 400 µM (inactive) | 4400 µM (inactive) | 543 µM (inactive) | 2050 µM (inactive) | 3730 µM (inactive) | 3440 µM (inactive) | 10600 µM (inactive)
O=[N+]([O-])c1ccc(O)c(/C=N/c2nc(-c3ccccc3)cs2)c1 | 8.95 µM (inactive) | 27.5 µM (inactive) | 2.4 µM (inactive) | 32.5 µM (inactive) | 32.2 µM (inactive) | 29.4 µM (inactive) | 24.4 µM (inactive) | 31.9 µM (inactive) | 38.5 µM (inactive) | 26.7 µM (inactive) | 33.3 µM (inactive) | 29.1 | 24.2 µM (inactive) | 24.8 µM (inactive) | > 93.5 µM (inactive) | 24.8 µM (inactive) | 43.3 µM (inactive) | 17.9 µM (inactive) | 19.2 µM (inactive) | 34.2 µM (inactive)
CCOC(=O)c1c(C)n(-c2ccc(Cl)cc2)c2c1cc(O)c1[nH]c3c(c12)CCCC3 | 33.9 µM (inactive) | 35.7 µM (inactive) | 41.3 µM (inactive) | > 100 µM (inactive) | 38.3 µM (inactive) | 57.3 µM (inactive) | 29.6 µM (inactive) | 33.2 µM (inactive) | > 100 µM (inactive) | > 100 µM (inactive) | > 100 µM (inactive) | > 100 | 44.4 µM (inactive) | 60.7 µM (inactive) | 73.1 µM (inactive) | 80.2 µM (inactive) | 32.4 µM (inactive) | 26.4 µM (inactive) | 24.3 µM (inactive) | > 100 µM (inactive)
[N-]=[N+]=NCC1OCC(O)C(OCc2ccccc2)C1OCc1ccccc1 (stereo not given) | > 100 µM (inactive) | > 100 µM (inactive) | 51.4 µM (inactive) | > 100 µM (inactive) | > 100 µM (inactive) | > 100 µM (inactive) | 39.4 µM (inactive) | > 100 µM (inactive) | 70 µM (inactive) | 95.9 µM (inactive) | > 100 µM (inactive) | 61 | 79.3 µM (inactive) | 72.8 µM (inactive) | > 100 µM (inactive) | > 10 µM (inactive) | 83.4 µM (inactive) | 37.1 µM (inactive) | 70 µM (inactive) | 81.5 µM (inactive)
NCCCN1CCN(CCCNc2ccc3ncn4c5ccccc5c(=O)c2c34)CC1 | 1.52 µM (inactive) | 1.45 µM (inactive) | 1.09 µM (active) | 4.98 µM (inactive) | 1.02 µM (active) | 2.79 µM (inactive) | 2.8 µM (inactive) | 4.47 µM (inactive) | 1.95 µM (inactive) | 1.03 µM (active) | 0.783 µM (active) | 4.4 | 1.04 µM (active) | 0.789 µM (active) | 1.69 µM (inactive) | 2.36 µM (inactive) | 1.41 µM (inactive) | 1.11 µM (active) | 0.456 µM (active) | 1.29 µM (inactive)
COCCOC(=O)C1=C(O)c2ccccc2S(=O)(=O)N1C | > 100 µM (inactive) | > 100 µM (inactive) | > 100 µM (inactive) | > 100 µM (inactive) | > 100 µM (inactive) | > 100 µM (inactive) | > 100 µM (inactive) | > 100 µM (inactive) | > 100 µM (inactive) | > 100 µM (inactive) | > 100 µM (inactive) | > 100 | > 100 µM (inactive) | > 100 µM (inactive) | > 100 µM (inactive) | > 100 µM (inactive) | > 100 µM (inactive) | > 100 µM (inactive) | > 100 µM (inactive) | > 100 µM (inactive)

— ChEMBL document CHEMBL1201862, “PubChem BioAssay data set” (2004)
